One may read the IC50 as the midpoint of a concentration-inhibition curve. Read a high IC50 as a need for much substance.

For this test, the target named is T1, Angiotensin II Receptor (Bos taurus, UniProt P25104).
T1 construct: The brownish tissue forming the adrenal cortex is scraped off and finely minced with scissors before homogenization; tissue local slaughter house (Maxwell-Cphen); host or cells: beef adrenal cortex, microsomal membranes
T1 sequence (P25104 1-359): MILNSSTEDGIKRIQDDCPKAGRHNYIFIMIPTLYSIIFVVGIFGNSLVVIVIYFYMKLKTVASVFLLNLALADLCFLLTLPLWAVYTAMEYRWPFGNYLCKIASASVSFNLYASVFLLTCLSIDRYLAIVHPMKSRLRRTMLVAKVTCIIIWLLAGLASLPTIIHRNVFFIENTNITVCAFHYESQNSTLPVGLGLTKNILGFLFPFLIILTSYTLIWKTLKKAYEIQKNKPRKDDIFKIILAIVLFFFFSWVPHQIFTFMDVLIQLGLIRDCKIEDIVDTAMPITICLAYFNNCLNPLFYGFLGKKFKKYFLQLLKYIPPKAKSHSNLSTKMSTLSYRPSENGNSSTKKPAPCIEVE
Put plainly: Angiotensin II receptor binding, displacement of [^125 I](Sar^1,Ile^8)AngII from beef adrenal cortex membranes. As to conditions: pH 7.4, 60 min, room temperature, triplicate. The text has this: Beef adrenals are obtained from a local slaughter house (Maxwell-Cphen). [^125 I](Sar^1,Ile^8)AngII, S.A. 2200 Ci/mmole, is purchased from Dupont (NEN®, Boston, Mass.). All unlabeled AngII analogs, Dimethylsulfoxide (DMSO), nucleotides, bovine serum albumin (BSA) are purchased from Sigma Chemical Co., St. Louis, Mo. U.S.A.
Approximately sixteen (16) to twenty (20) beef adrenal glands are processed as follows: fresh adrenal glands received on crushed ice are cleaned of fatty tissues and the tough membranes encapsulating the glands are removed and discarded. The brownish tissue forming the adrenal cortex is scraped off and finely minced with scissors before homogenization. Care is taken to avoid contamination with medullary tissue during dissection. The scraped cortices are suspended in twenty volumes of an ice-cold buffer medium consisting of 10 mM Tris.HCl (pH 7.4 at 22° C.) and containing 1.0 mM EDTA and 0.2 M sucrose. Unless otherwise indicated, all subsequent operations are done at 4° C. […] This P2 pellet is discarded and the liquid phase is carefully decanted off in clean centrifuge tubes and recentrifuged at high speed ([…]) […] the protein content of the preparation is determined by the Lowry's method (Lowry, O. H., Rosebrough, N. F., Farr, A. L. and Randall, R. J., Protein measurement with Folin phenol reagent. J. Biol. Chem., […], 265-275, 1951). […]

The compound `CCCCc1nc(Cl)c([C@@]2(C)C[C@@H]3CCCN3O2)n1Cc1ccc(-c2ccccc2-c2nn[nH]n2)cc1` (racemic) [Example 8, Cis-(+/-)-2-[2-Butyl-4-chloro-1-[[2'-(1H-tetrazol-5-yl)[1,1'-biphenyl]-4-yl]methyl]-1H-imidazol-5-yl]hexahydro-2-methyl-pyrrolo[1,2-b]isoxazole] showed a half-maximal inhibitory concentration (IC50) of 34 nM.

For the origin of these results see US5298517A, “Angiotensin II receptor blocking agents” (American Cyanamid Company, priority 1993, dated 1994).
